Entries after “also recorded” stand apart in the source; their conditions may differ.
Columns and labels:
Assay type in all cases: in vivo, Arabidopsis thaliana
[1] = tested on: PHT1 genes (PHT1;4); assay: qPCR of PHT1 transcript level on root mRNA
Procedure: (§1) Plant RNA was extracted with the RNeasy kit (QIAGEN, France). For transcriptome data, RNA were analysed by the CATMA technology (Complete Arabidopsis Transcriptome Microarray). For qPCR, poly(dT) cDNA were prepared from 500 ng total RNA with Superscript III reverse transcriptase (Invitrogen, France) and analysed on a LightCycler 480 apparatus (Roche Diagnostics, France) with the SYBR Green I Master kit (Roche Diagnostics, France) according to the manufacturer's instructions. Targets were quantified with specific primer pairs designed with Primer3 website (http://frodo.wi.mit.edu/primer3/) (see Table II below). Biological triplicates were performed for all experiments. Expression levels were normalized using At2g16600, At3g04120, At1g35160 and At1g32050 genes.

[2] = tested on: Pi uptake capacity; assay: Phosphate uptake experiments (33PO4); settings: −Pi+PTN1 vs −Pi, 7-day-old plantlets, FIG. 3 (B)
Procedure: Phosphate uptake experiments were performed as previously described by Narang et al. (2000). 24 seedlings per conditions were incubated separately in a phosphate incubation solution containing ^33PO4 (5 mM MES, 0.1 mM CaCl2, 20 μM KH2PO4, 0.15 μCi/ml ^33PO4) for 2 h. After incubation in the uptake solution, plantlets were transferred to a chilled desorption medium (5 mM MES, 0.1 mM CaCl2, 1 mM KH2PO4) for 2 h at 4° C. Then, the seedlings were dried in scintillation vials at 60° C. overnight. An amount of 2 ml of scintillation cocktail (InstaGel, PerkinElmer, Wellesley, Mass., USA) was added and the radioactivity was measured with a scintillation analyzer (TRICARB, Packard instrument company). The amount of phosphate absorbed during the experiment was calculated and normalized per cm of root.

[3] = Total phosphorus content by ICP; settings: FIG. 3 (C)
Procedure: For the quantification of ions content, 50 mg of dry weight of each sample were mineralized in 14% HNO3 using a MarsX microwave system (CEM) for the determination of macro- and microelements by inductively coupled plasma optical emission spectrometry (ICP OES Vista MPX, Varian). Biological triplicates were performed for all experiments.

[4] = tested on: phosphatase activity; assay: Phosphatase activity on root samples; settings: 7-days-old plants, −Pi+PTN1 40 μM, FIG. 4
Procedure: Soluble proteins were extracted with 50 mM TRIS pH 7.4 and 1 mM DTE (1,4-Dithioerythritol, Sigma, 6892-68-8). The protein concentration was determined by the Bradford methods, using albumin from bovine serum (BSA, Sigma, 9048-46-8) as a standard. The phosphatase activity in solution was determined as previously described by Kolari and Sarjala, (1995), by measuring the release of nitrophenol from 0.6 mM p-nitrophenylphosphate in 50 mM sodium acetate pH 5. Reactions were incubated at 30° C. for […] and were stopped with 10% of Na2CO3, after which the absorbance at 405 nm was measured.

[5] = tested on: cycB1::GUS; assay: Cell cycle marker cycB1::GUS in root tip; settings: 40 μM, −Pi seedlings, FIG. 7 (B)
Procedure: The GUS activity was detected as previously described by Jefferson et al. (1987), using a GUS staining solution containing 50 mM sodium phosphate buffer pH 7.0; 0.01% Triton X-100, 1 mM K3Fe(CN)6, 1 mM K4Fe(CN)6, 1 mg/ml 5-bromo-4-chloro-3-indolyl B-D-glucuronide (X-Gluc). For cycB1::GUS staining, plants were incubated 6 hours at 37° C.

[6] = tested on: root cortical cells; assay: Cortical cell size of root; settings: −Pi seedlings, FIG. 7 (C)
[7] = tested on: lpr1, lpr2 and lpi mutants; assay: Primary root growth of mutants with reduced root sensitivity to Pi starvation; settings: 7-days-old plants, PTN1 40 μM, FIG. 8
Text: A “chemical genetics” approach has been carried out to isolate compounds that inhibit the phosphate (Pi) response in Arabidopsis thaliana. Compounds were screened for their ability to inhibit the expression of a phosphate starvation marker, namely the high affinity Pi transporter PHT1,4 gene. For the screening, the A. thaliana pht1;4-1 line (ecotype Wassilewskija) was chosen (Misson et al., 2004). It contains a T-DNA construct inserted into Pht1;4 gene creating a transcriptional fusion with a GUS reporter gene. For phenotypic analyses, A. thaliana Columbia and various lines derived from this ecotype were used. They are either transgenic lines expressing reporter gene as cycB1::GUS (Colón Carmona et al., 1999), MGD3::LUC, PHT1;4::LUC, At1g73010::LUC or various mutants affecting root response to low Pi such as: pdr2 (Ticconi et al., 2004), lpr1, lpr2 (Svistoonoff et al., 2007), lpi1, lpi2 and lpi3 (Sanchez-Calderon et al., 2006).
In the Pi deficient medium, NaCl (0.5 mM) was used to replace the equivalent amount of sodium provided by NaH2PO4. For controls of the effects of the compounds, 1% of DMSO (Dimethyl sulfoxid, SIGMA, 472301), solvent for the tested compounds, was added. […] Root architecture and aerial part area were quantified using program ImageJ.

[8] = tested on: Col-0 plants; assay: Shoot (rosette) area after 28 days; settings: four weeks on −Pi medium, FIG. 10 (A), (B)
Procedure: (§2) In the Pi deficient medium, NaCl (0.5 mM) was used to replace the equivalent amount of sodium provided by NaH2PO4. For controls of the effects of the compounds, 1% of DMSO (Dimethyl sulfoxid, SIGMA, 472301), solvent for the tested compounds, was added. After 2 days at 4° C., the plates were placed in a vertical position and plants were grown in a culture chamber under a 16 h light/8 h dark regime (24/21° C., 150 μE m^−2s^−1). For 4 weeks culture, large plates (24×24 cm) were placed in a horizontal position. Root architecture and aerial part area were quantified using program ImageJ.

[9] = tested on: anthocyanin accumulation; assay: Anthocyanins content; settings: FIG. 10 (C)
Procedure: Lipids and anthocyanins were analyzed as previously described by Jouhet (2003) and Ticconi (2001).

[10] = tested on: starch accumulation; assay: Starch staining with lugol; settings: FIG. 10 (D)
Procedure: Starch staining was performed according to Zakhleniuk et al. (2001). Aerial part of plants was placed 6 h in EtOH 90% before to be iodine stained for 30 min in lugol (lugol solution; Sigma, France) and washed several times in water.

[11] = tested on: lpr1 mutant; assay: Shoot growth of lpr1 mutant; settings: −Pi, FIG. 11
Procedure: as §2

[12] = tested on: PHT1;4, PHT1;8, MGD3, PLDz2, SQD2, SPX1; assay: qPCR of Pi starvation regulated genes in lpr1 mutant; settings: 14 days-old plants, FIG. 12
Procedure: as §1

O=c1c(Sc2ccc(Cl)cc2)c(Sc2ccc(Cl)cc2)c1=O [PTN1]
reduction of the impact of Pi starvation on the level of induction of PHT1 transcripts ([1]; 40 μM, roots, 7-day-old plantlets, FIG. 3 (A)): at least 50% | efficiency on PHT1;4 relative to PTN2 ([1]; FIG. 2 (B)): twice more efficient than PTN2 | effect on PHT1;4 transcript level ([1]; qPCR on root mRNA, FIG. 2 (B)): dose dependant manner | reduction of Pi uptake capacity [2]: 25% | phosphorous amount vs −Pi control, leaves [3]: +40% | phosphorous amount vs −Pi control, shoot [3]: +90% | phosphatase activity [4]: not altered; also recorded: did not impact the phosphatase activity | CycB1 expression in root tip [5]: expressed in the root tip of −Pi seedlings but there were fewer stained cells than in the +Pi control | root cortical cell elongation [6]: restored root cell elongation of −Pi seedlings to an extant closed to the untreated control grown on a +Pi medium | primary root growth of lpr1 or lpi mutants [7]: no additive effect; also recorded: did not impact the primary root growth | rosette area (leaf growth) vs −Pi [8]: +50% | anthocyanin accumulated, less than control grown on −Pi [9]: around 60% | starch accumulation [10]: severely attenuated | anthocyanins accumulation in leaves of lpr1 [11]: substantially suppressed this accumulation | expression of PHT1;4, PHT1;8, MGD3, PLDz2, SQD2, SPX1 in lpr1 [12]: repressed the expression of these genes in lpr1 to a similar level as observed in the WT
